Assays:
[1] = tested on: Pseudomonas aeruginosa E-2; assay: Therapeutic effects of compounds in urinary infectious diseases in vivo; design: species or system JCL:S.D. female rats; conditions: E2, 96 h, female S.D. rats, bladder infection, oral at 6, 24 and 48 hours, urine and kidney colonies after 4 days, Probit method, read-out: 50% effective dose (ED50)
Protocol: Pseudomonas aeruginosa E-2 was cultured in a nutrient medium at 37° C. for 18 hours and the culture broth thus obtained was diluted with the same medium to prepare a solution of the microorganism (cell concentration: 10^7 cells/ml). To the solution were dipped a UV-sterilized disc [glyceryl monomyristate (manufactured by Nikko Chemicals, Japan) and sodium cetylsulfurate (manufactured by Nikko Chemicals, Japan) in a weight ratio of 9:1; diameter: 2.0 mm, length: 3.0 mm] under ice-cooling for 1.5 hour to give a microorganism-containing disc for inoculation.
The above-prepared disc was surgically inserted into the bladder of JCL:S.D. female rats (one group: four rats) anaesthetized with secobarbital sodium. After the animals have been infected with the microorganism, i.e. 6 hours after the insertion of the disc, 1% oxamide-containing feed and water were administered to the animals. The oxamide-containing feed was changed to a normal feed after 24 hours. Test compounds 1, 7 and 8 as used in Test 1 (in the form of a 0.5% CMC suspension) were each orally administered to the animals in a dose of 16 mg/kg, 8.0 mg/kg, 4.0 mg/kg, 2.0 mg/kg, and 1.0 mg/kg at 6, 24 and 48 hours after the insertion of disc. After 4 days from the infection, urine was collected and further the kidney was taken out from the animals, and then the presence of microorganism was checked as to the collected urine and kidney. That is, 0.1 ml of the urine was applied onto an agar plate medium and cultured at 37° C. for 18 hours, and the number of colonies was counted. Besides, the taken out kidney was divided into two, and the plain section was contacted to an agar plate medium, and the medium was cultured likewise, and the number of colonies was counted, likewise. When the number of colonies was less than 10, it was evaluated as "effective," and when the number of colonies was more than 10, it was evaluated as "ineffective". […]

[2] = tested on: Staphylococcus aureus FDA 209P; assay: Antimicrobial test in vitro (MIC, agar plate dilution method); assay type: cell-based; design: unit not given here; conditions: S. aureus FDA 209P
Protocol: (§1) The antimicrobial activities of the following test compounds were tested by measuring the minimum inhibitory concentration (MIC) by an agar plate dilution method [cf. Chemotherapy, 22, 1126-1128 (1974)]. The test microorganisms were used in a concentration of 1×10^8 cells/ml (optical dencity (O.D.) at 660 m: 0.07-0.16) and 1×10^6 cells/ml (dilution: 100 folds).
A: Staphylococcus aureus FDA 209P

[3] = tested on: Streptococcus pyogenes II D S-23; assay: as above; assay type: cell-based; design: unit not given here; conditions: S. pyogenes II D S-23
Protocol: as §1
B: Streptococcus pyogenes II D S-23

[4] = tested on: Escherichia coli NIHJ JC-2; assay: as above; assay type: cell-based; design: unit not given here; conditions: E. coli NIHJ JC-2
Protocol: as §1
C: Escherichia coli NIHJ JC-2

[5] = tested on: Escherichia coli No. 29; assay: as above; assay type: cell-based; design: unit not given here; conditions: E. coli No. 29
Protocol: as §1
D: Escherichia coli No. 29

[6] = tested on: Klebsiella pneumoniae NCTC 9632; assay: as above; assay type: cell-based; design: unit not given here; conditions: K. pneumoniae NCTC 9632
Protocol: as §1
E: Klebsiella pneumoniae NCTC 9632

[7] = tested on: Proteus mirabilis 1287; assay: as above; assay type: cell-based; design: unit not given here; conditions: P. mirabilis 1287
Protocol: as §1
F: Proteus mirabilis 1287

[8] = tested on: Proteus morganii II D Kono; assay: as above; assay type: cell-based; design: unit not given here; conditions: P. morganii II D Kono
Protocol: as §1
G: Proteus morganii II D Kono

[9] = tested on: Serratia marcescens IFO 12648; assay: as above; assay type: cell-based; design: unit not given here; conditions: S. marcescens IFO 12648
Protocol: as §1
H: Serratia marcescens IFO 12648

[10] = tested on: Acinetobacter calcoaceticus AC-54; assay: as above; assay type: cell-based; design: unit not given here; conditions: A. calcoaceticus AC-54
Protocol: as §1
I: Acinetobacter calcoaceticus AC-54

[11] = tested on: Pseudomonas aeruginosa ATCC 10145; assay: as above; assay type: cell-based; design: unit not given here; conditions: P. aeruginosa ATCC 10145
Protocol: as §1
J: Pseudomonas aeruginosa ATCC 10145

[12] = tested on: Pseudomonas aeruginosa E-2; assay: as above; assay type: cell-based; design: unit not given here; conditions: P. aeruginosa E-2
Protocol: as §1
K: Pseudomonas aeruginosa E-2

[13] = Measurement of concentration of compounds in urine; assay type: in vivo; conditions: male rats, oral 25 mg/kg, 0-24 hours
Protocol: (§2) The same Test Compound 1 as used in the above Test 1 was orally administered in a dose of 25 mg/kg to three male rats (weighing 190-242 g), and blood and urine were collected from the animals at intervals. The concentration of the test compound in the collected urine and blood was measured by a thin layer plate cup (6 ml medium/.phi.90 mm shall) method wherein Bacillus subtilis ATCC 6633 was used as a test microorganism and a sensitive medium (manufactured by Eiken Kagaku K.K., Japan) was used as a medium. The results are shown in Table 2 (the concentration in urine) and in Table 3 (the concentration in blood), respectively.

[14] = Measurement of concentration of compounds in blood; assay type: in vivo; conditions: rat, male rats, oral 25 mg/kg
Protocol: as §2

SMILES: CC1CCc2c(N3CCN(C)CC3)c(F)cc3c(=O)c(C(=O)O)cn1c23 (stereo not drawn) [Test compound 8, 8-(4-methyl-1-piperazinyl)-9-fluoro-5-methyl-6,7-dihydro-1-oxo-1H,5H-benzo[ij]quinolidine-2-carboxylic acid]
- ED50 [1]: 12 mg/kg

SMILES: CC1Cc2c(N3CCN(C)CC3)c(F)cc3c(=O)c(C(=O)O)cn1c23 (stereo not drawn) [Test compound 7, 8-fluoro-2-methyl-6-oxo-9-(4-methyl-1-piperazinyl)-1,2-dihydro-pyrrolo[3,2,1-ij]quinoline-5-carboxylic acid]
- ED50 [1]: 6.15 mg/kg

SMILES: CC1Cc2c(N3CCN(C)CC3)c(F)c(N)c3c(=O)c(C(=O)O)cn1c23 (stereo not drawn) [Compound 1, 8-fluoro-2-methyl-9-(4-methyl-1-piperazinyl)-7-amino-6-oxo-1,2-dihydro-pyrrolo[3,2,1-ij]quinoline-5-carboxylic acid]
- minimum inhibitory concentration (MIC) ([2]; 1×10^6 cells/ml): 0.2
- minimum inhibitory concentration (MIC) ([2]; 1×10^8 cells/ml): 0.39
- minimum inhibitory concentration (MIC) ([3]; 1×10^6 cells/ml): 3.13
- minimum inhibitory concentration (MIC) ([3]; 1×10^8 cells/ml): 3.13
- minimum inhibitory concentration (MIC) ([4]; 1×10^6 cells/ml): 0.05
- minimum inhibitory concentration (MIC) ([4]; 1×10^8 cells/ml): 0.1
- minimum inhibitory concentration (MIC) ([5]; 1×10^6 cells/ml): 0.1
- minimum inhibitory concentration (MIC) ([5]; 1×10^8 cells/ml): 0.1
- minimum inhibitory concentration (MIC) ([6]; 1×10^6 cells/ml): 0.2
- minimum inhibitory concentration (MIC) ([6]; 1×10^8 cells/ml): 0.2
- minimum inhibitory concentration (MIC) ([7]; 1×10^6 cells/ml): 0.39
- minimum inhibitory concentration (MIC) ([7]; 1×10^8 cells/ml): 0.78
- minimum inhibitory concentration (MIC) ([8]; 1×10^6 cells/ml): 0.2
- minimum inhibitory concentration (MIC) ([8]; 1×10^8 cells/ml): 0.39
- minimum inhibitory concentration (MIC) ([9]; 1×10^6 cells/ml): 0.2
- minimum inhibitory concentration (MIC) ([9]; 1×10^8 cells/ml): 0.2
- minimum inhibitory concentration (MIC) ([10]; 1×10^6 cells/ml): 0.39
- minimum inhibitory concentration (MIC) ([10]; 1×10^8 cells/ml): 0.39
- minimum inhibitory concentration (MIC) ([11]; 1×10^6 cells/ml): 0.78
- minimum inhibitory concentration (MIC) ([11]; 1×10^8 cells/ml): 1.56
- minimum inhibitory concentration (MIC) ([12]; 1×10^6 cells/ml): 0.78
- minimum inhibitory concentration (MIC) ([12]; 1×10^8 cells/ml): 1.56
- Recovered amount in urine [13]: 1471.6 µg
- dose excreted at 24 h ([13]; rat, urine, read-out: Recovery rate in urine): 27.2%
- concentration at 0.5 h ([14]; 0.5 hour after the administration): 3190 ng/mL
- concentration at 1 h ([14]; 1 hour after the administration): 2490 ng/mL
- concentration at 2 h ([14]; 2 hours after the administration): 1920 ng/mL
- concentration at 4 h ([14]; 4 hours after the administration): 900 ng/mL
- concentration at 6 h ([14]; 6 hours after the administration): 600 ng/mL
- concentration at 8 h ([14]; 8 hours after the administration): 310 ng/mL
- ED50 [1]: 1.53 mg/kg
